This is an account of results in patent US20250154197A1, “LIPOLYTIC PEPTIDES” (FUNDACIÓ HOSPITAL UNIVERSITARI VALL D'HEBRON - INSTITUT DE …, priority 2021, published 2025).

Experiment [1] has as its system human subcutaneoous mature adipocytes. Put plainly: Lipolytic activity: glycerol release in human adipocytes (Lipolysis Assay kit). In kind it is cell-based. As to conditions: human subcutaneous mature adipocytes.
The next experiment concerns 3T3-L1 mouse adipocytes. The experiment in a line: Lipolytic activity: glycerol release in differentiated 3T3-L1 mouse adipocytes (12 h). To be noted: 3T3-L1 mouse adipocytes, 12 h. In kind it is cell-based. How it is done: JCRB9014-A) from Tebu-Bio (Tebu-bio, Barcelona, Spain). Briefly, mouse adipocytes (3T3-L1 cells) were cultured in 48 well plates as described previously (Saez-Lopez et al., 2020). Adipocytes were differentiated using cell culture reagents purchased from Tebu-Bio and following the manufacturer's instructions. At day of differentiation cells were treated in duplicates with vehicle (DMSO), Caffeine (100 μg/ml), and each of the peptides at the specified doses in Table 6a below. At the end of the experiment (12 h), supernatants were collected and glycerol content was measured using a Glycerol Assay Kit (Sigma) following manufacturer's instructions.

Where no end group is shown, it is not given here. [ ]: non-standard residue; d: D form. The star is where a group is joined. Palmitoyl = CCCCCCCCCCCCCCCC(=O)*; Propionyl = CCC(=O)*

“acetyl-hexapeptide-39 (Ac-SIYVAT-NH2) [Hexa-39, reference compound]”: the “Lipolysis Activity measured as Glycerol (μM) release in media” value (from here on “Lipolysis Activity measured as Glycerol”) in experiment [1] (100 μg/ml) is 29.21 µM.

As for “Ac-TWDPEGVIFY-NH2 (Ac-[dT][dW][dD][dP][dE]G[dV][dI][dF][dY]-NH2; SMILES CC[C@@H](C)[C@@H](NC(=O)[C@H](NC(=O)CNC(=O)[C@@H](CCC(=O)O)NC(=O)[C@H]1CCCN1C(=O)[C@@H](CC(=O)O)NC(=O)[C@@H](Cc1c[nH]c2ccccc12)NC(=O)[C@H](NC(C)=O)[C@H](C)O)C(C)C)C(=O)N[C@H](Cc1ccccc1)C(=O)N[C@H](Cc1ccc(O)cc1)C(N)=O) [GP3D-AcNH2, N-term CH3CONH, C-term CONH2]”, the “Lipolysis Activity measured as Glycerol” value with 3T3-L1 mouse adipocytes (1 μg/ml) turned out to be 606 µM; in the experiment with 3T3-L1 mouse adipocytes (10 μg/ml), 464 µM; with 3T3-L1 mouse adipocytes (100 μg/ml), 472 µM.

“DN-LD-LP-LE-G-LL-LY ([dN]DPEGLY) [GP3DM-13, N-term NH2, C-term COOH]”: the results for the “Lipolysis Activity measured as Glycerol” value in experiment [1] (50 μg/ml) and in experiment [1] (100 μg/ml) were 49.5 µM and 42.1 µM, respectively.

Take “WDPEGVF (H-[dW][dD][dP][dE]G[dV][dF]-OH; SMILES CC(C)[C@@H](NC(=O)CNC(=O)[C@@H](CCC(=O)O)NC(=O)[C@H]1CCCN1C(=O)[C@@H](CC(=O)O)NC(=O)[C@H](N)Cc1c[nH]c2ccccc12)C(=O)N[C@H](Cc1ccccc1)C(=O)O) [GP3D-7 I VIII X, N-term NH2, C-term COOH]”: the “Lipolysis Activity measured as Glycerol” value in experiment [1] (25 μg/ml) amounted to 14.57 µM; in experiment [1] (50 μg/ml) it was 36.68 µM; in experiment [1] (75 μg/ml), 42.95 µM; in experiment [1] (100 μg/ml), 46.85 µM.

As to “LN-LD-LP-LE-G-LL-DY (NDPEGL[dY]) [GP3DM-18, N-term NH2, C-term COOH]”, the “Lipolysis Activity measured as Glycerol” value is 44.4 µM in experiment [1] (50 μg/ml) and 63.5 µM in experiment [1] (100 μg/ml).

For the substance “NDEGLY [GP3DM-24] (H-[dN][dD][dE]G[dL][dY]-OH; SMILES CC(C)C[C@@H](NC(=O)CNC(=O)[C@@H](CCC(=O)O)NC(=O)[C@@H](CC(=O)O)NC(=O)[C@H](N)CC(N)=O)C(=O)N[C@H](Cc1ccc(O)cc1)C(=O)O) [N-term NH2, C-term COOH]”, the results for the “Lipolysis Activity measured as Glycerol” value in experiment [1] (25 μg/ml), in experiment [1] (50 μg/ml) and in experiment [1] (100 μg/ml) were 105.2 µM, 111.0 µM and 148.6 µM, respectively.

Take “LN-LD-DP-LE-G-LL-LY (ND[dP]EGLY) [GP3DM-15, N-term NH2, C-term COOH]”: the entries for the “Lipolysis Activity measured as Glycerol” value in experiment [1] (50 μg/ml) and in experiment [1] (100 μg/ml) were 42.0 µM and 47.2 µM, respectively.

Regarding “Ac-NDLEGLY-NH2 (Ac-[dN][dD][dL][dE]G[dL][dY]-NH2; SMILES CC(=O)N[C@H](CC(N)=O)C(=O)N[C@H](CC(=O)O)C(=O)N[C@H](CC(C)C)C(=O)N[C@H](CCC(=O)O)C(=O)NCC(=O)N[C@H](CC(C)C)C(=O)N[C@H](Cc1ccc(O)cc1)C(N)=O) [GP3DM-29, N-term CH3CONH, C-term CONH2]”, the entries for the “Lipolysis Activity measured as Glycerol” value in experiment [1] (25 μg/ml), in experiment [1] (50 μg/ml) and in experiment [1] (100 μg/ml) were 123.8 µM, 72.4 µM and 131.9 µM, respectively.

Take “Ac-NDPEGLY-NH2 (Ac-[dN][dD][dP][dE]G[dL][dY]-NH2; SMILES CC(=O)N[C@H](CC(N)=O)C(=O)N[C@H](CC(=O)O)C(=O)N1CCC[C@@H]1C(=O)N[C@H](CCC(=O)O)C(=O)NCC(=O)N[C@H](CC(C)C)C(=O)N[C@H](Cc1ccc(O)cc1)C(N)=O) [GP3DM-27, N-term CH3CONH, C-term CONH2]”: the figures for the “Lipolysis Activity measured as Glycerol” value in experiment [1] (25 μg/ml), in experiment [1] (50 μg/ml) and in experiment [1] (100 μg/ml) were 72.6 µM, 133.3 µM and 142.7 µM, respectively.

With “Ac-LN-LD-LP-LE-G-LL-LY (Ac-NDPEGLY) [Acetyl-NH-GP3DM-12, N-term CH3CONH, C-term COOH]”, in experiment [1] (100 μg/ml), the “Lipolysis Activity measured as Glycerol” value was found to be 138.6 µM.

Consider “LN-LD-LP-DE-G-LL-LY (NDP[dE]GLY) [GP3DM-16, N-term NH2, C-term COOH]”, for which the “Lipolysis Activity measured as Glycerol” value turned out to be 41.5 µM in experiment [1] (50 μg/ml) and 44.1 µM in experiment [1] (100 μg/ml).

For “NDEGLY [GP3DM-23] (H-[dN][dD][dE]G[dL][dY]-OH; SMILES CC(C)C[C@@H](NC(=O)CNC(=O)[C@@H](CCC(=O)O)NC(=O)[C@@H](CC(=O)O)NC(=O)[C@H](N)CC(N)=O)C(=O)N[C@H](Cc1ccc(O)cc1)C(=O)O) [N-term NH2, C-term COOH]”, the “Lipolysis Activity measured as Glycerol” value in experiment [1] (25 μg/ml) was found to be 139.7 µM; in experiment [1] (50 μg/ml), 97.7 µM; in experiment [1] (100 μg/ml) it was 170.0 µM.

“LN-DD-LP-LE-G-LL-LY (N[dD]PEGLY) [GP3DM-14, N-term NH2, C-term COOH]”: the “Lipolysis Activity measured as Glycerol” value in experiment [1] (50 μg/ml) came out at 53.1 µM; in experiment [1] (100 μg/ml), 52.8 µM.

Regarding “NDPEGY (H-[dN][dD][dP][dE]G[dY]-OH; SMILES NC(=O)C[C@@H](N)C(=O)N[C@H](CC(=O)O)C(=O)N1CCC[C@@H]1C(=O)N[C@H](CCC(=O)O)C(=O)NCC(=O)N[C@H](Cc1ccc(O)cc1)C(=O)O) [GP3DM-20, N-term NH2, C-term COOH]”, the “Lipolysis Activity measured as Glycerol” value in experiment [1] (25 μg/ml) was determined as 128.1 µM; in experiment [1] (50 μg/ml), 117.7 µM; in experiment [1] (100 μg/ml), 118.7 µM.

Turning to “Ac-NDLEGLY (Ac-[dN][dD][dL][dE]G[dL][dY]-OH; SMILES CC(=O)N[C@H](CC(N)=O)C(=O)N[C@H](CC(=O)O)C(=O)N[C@H](CC(C)C)C(=O)N[C@H](CCC(=O)O)C(=O)NCC(=O)N[C@H](CC(C)C)C(=O)N[C@H](Cc1ccc(O)cc1)C(=O)O) [GP3DM-25, N-term CH3CONH, C-term COOH]”, the “Lipolysis Activity measured as Glycerol” value in experiment [1] (25 μg/ml) stood at 134.2 µM; in experiment [1] (50 μg/ml), 104.4 µM; in experiment [1] (100 μg/ml) it was 121.6 µM.

As for “NDEGLFY (H-[dN][dD][dE]G[dL][dF][dY]-OH; SMILES CC(C)C[C@@H](NC(=O)CNC(=O)[C@@H](CCC(=O)O)NC(=O)[C@@H](CC(=O)O)NC(=O)[C@H](N)CC(N)=O)C(=O)N[C@H](Cc1ccccc1)C(=O)N[C@H](Cc1ccc(O)cc1)C(=O)O) [GP3DM-19, N-term NH2, C-term COOH]”, the “Lipolysis Activity measured as Glycerol” value turned out to be 87.1 µM in experiment [1] (25 μg/ml), 64.0 µM in experiment [1] (50 μg/ml) and 123.3 µM in experiment [1] (100 μg/ml).

On to “NDEGLY [GP3DM-22] (H-[dN][dD][dE]G[dL][dY]-OH; SMILES CC(C)C[C@@H](NC(=O)CNC(=O)[C@@H](CCC(=O)O)NC(=O)[C@@H](CC(=O)O)NC(=O)[C@H](N)CC(N)=O)C(=O)N[C@H](Cc1ccc(O)cc1)C(=O)O) [N-term NH2, C-term COOH]”, for which the “Lipolysis Activity measured as Glycerol” value in experiment [1] (25 μg/ml) worked out at 52.1 µM; in experiment [1] (50 μg/ml) it was 59.5 µM; in experiment [1] (100 μg/ml) it was 131.9 µM.

Turning to “EtCONH-NDLEGLY (Propionyl-[dN][dD][dL][dE]G[dL][dY]-OH; SMILES CCC(=O)N[C@H](CC(N)=O)C(=O)N[C@H](CC(=O)O)C(=O)N[C@H](CC(C)C)C(=O)N[C@H](CCC(=O)O)C(=O)NCC(=O)N[C@H](CC(C)C)C(=O)N[C@H](Cc1ccc(O)cc1)C(=O)O) [GP3DM-26, N-term CH3CH2CONH, C-term COOH]”, the “Lipolysis Activity measured as Glycerol” value in experiment [1] (25 μg/ml) is 98.4 µM; in experiment [1] (50 μg/ml), 140.0 µM; in experiment [1] (100 μg/ml) it was 149.6 µM.

On to “NDLEGLY (H-[dN][dD][dL][dE]G[dL][dY]-OH; SMILES CC(C)C[C@@H](NC(=O)CNC(=O)[C@@H](CCC(=O)O)NC(=O)[C@@H](CC(C)C)NC(=O)[C@@H](CC(=O)O)NC(=O)[C@H](N)CC(N)=O)C(=O)N[C@H](Cc1ccc(O)cc1)C(=O)O) [GP3DM-21, N-term NH2, C-term COOH]”, for which the entries for the “Lipolysis Activity measured as Glycerol” value in experiment [1] (25 μg/ml), in experiment [1] (50 μg/ml) and in experiment [1] (100 μg/ml) were 116.5 µM, 116.7 µM and 102.5 µM, respectively.

“LN-LD-LP-LE-G-DL-LY (NDPEG[dL]Y) [GP3DM-17, N-term NH2, C-term COOH]”: the “Lipolysis Activity measured as Glycerol” value came to 47.4 µM in experiment [1] (50 μg/ml) and 53.6 µM in experiment [1] (100 μg/ml).

For the substance “Ac-NDPEGLY (Ac-[dN][dD][dP][dE]G[dL][dY]-OH; SMILES CC(=O)N[C@H](CC(N)=O)C(=O)N[C@H](CC(=O)O)C(=O)N1CCC[C@@H]1C(=O)N[C@H](CCC(=O)O)C(=O)NCC(=O)N[C@H](CC(C)C)C(=O)N[C@H](Cc1ccc(O)cc1)C(=O)O) [Acetyl-NH-EDL67, N-term CH3CONH, C-term COOH]”, the results for the “Lipolysis Activity measured as Glycerol” value in experiment [1] (25 μg/ml), in experiment [1] (50 μg/ml) and in experiment [1] (100 μg/ml) were 66.2 µM, 121.0 µM and 74.2 µM, respectively.

Consider “CH3(CH2)14CONH-NDLEGLY (Palmitoyl-[dN][dD][dL][dE]G[dL][dY]-OH; SMILES CCCCCCCCCCCCCCCC(=O)N[C@H](CC(N)=O)C(=O)N[C@H](CC(=O)O)C(=O)N[C@H](CC(C)C)C(=O)N[C@H](CCC(=O)O)C(=O)NCC(=O)N[C@H](CC(C)C)C(=O)N[C@H](Cc1ccc(O)cc1)C(=O)O) [GP3DM-28, N-term CH3(CH2)14CONH, C-term COOH]”, for which the “Lipolysis Activity measured as Glycerol” value is 50.5 µM in experiment [1] (25 μg/ml), 122.6 µM in experiment [1] (50 μg/ml) and 106.0 µM in experiment [1] (100 μg/ml).
